Here are results for 27 compounds from patent publication US10647713B2 (Nimbus Lakshmi, Inc., priority 2016, dated 2020).

Sequence of human TYK2 (JH2domain-pseudokinase) (P29597 556-888): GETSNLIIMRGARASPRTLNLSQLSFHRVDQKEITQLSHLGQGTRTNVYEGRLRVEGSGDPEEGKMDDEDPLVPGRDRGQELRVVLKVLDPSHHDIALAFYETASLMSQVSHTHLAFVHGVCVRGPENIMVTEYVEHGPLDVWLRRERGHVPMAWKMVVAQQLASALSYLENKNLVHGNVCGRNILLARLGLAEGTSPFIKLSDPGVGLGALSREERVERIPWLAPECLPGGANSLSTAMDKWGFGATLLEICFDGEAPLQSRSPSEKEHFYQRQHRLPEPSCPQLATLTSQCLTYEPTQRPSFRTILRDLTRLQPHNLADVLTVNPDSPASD

The target of the test is human TYK2 (JH2domain-pseudokinase) (Homo sapiens (Human), UniProt P29597). The experiment in a line: TYK2 JH2 Domain Binding Assay (KINOMEscan, DiscoveRx). As to conditions: 11-point dilution, duplicate. An outline of the steps:
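Kd from duplicate 11-point 3-fold dilutions starting at 30,000 nM, fitted by Hill equation with slope fixed at −1. Compounds (final 0.9% DMSO) displace DNA-tagged HEK293-expressed TYK2 JH2 fusion (<0.1 nM) from ligand-coated beads over 1 h at room temperature; eluted kinase read by qPCR.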
`CC1(C)COC(c2ccc(Nc3cc(NC(=O)[C@@H]4C[C@@H]4F)nc4[nH]c(C(F)F)nc34)c(S(C)(=O)=O)c2)=N1` [I-428, (1S,2S)—N-(2-(difluoromethyl)-7-((4-(4,4-dimethyl-4,5-dihydrooxazol-2-yl)-2-(methylsulfonyl)phenyl)amino)-3H-imidazo[4,5-b]pyridin-5-yl)-2-fluorocyclopropane-1-carboxamide] showed a dissociation constant (Kd) of 1 to 10 nM.

For the compound `Cn1ccc(-c2ccc(Nc3cc(NC(=O)C4CC4)nc4[nH]c(C(F)F)nc34)c(P(C)(C)=O)c2)n1` [I-429, N-(2-(difluoromethyl)-7-((2-(dimethylphosphoryl)-4-(1-methyl-1H-pyrazol-3-yl)phenyl)amino)-3H-imidazo[4,5-b]pyridin-5-yl)cyclopropanecarboxamide], the Kd is < 0.1 nM.

Turning to `Cc1nc2c(Nc3ccc(-c4ccn(C)n4)cc3P(C)(C)=O)cc(NC(=O)C3CC3)nc2[nH]1` [I-430, N-(7-((2-(dimethylphosphoryl)-4-(1-methyl-1H-pyrazol-3-yl)phenyl)amino)-2-methyl-3H-imidazo[4,5-b]pyridin-5-yl)cyclopropanecarboxamide], the dissociation constant Kd was in the range of 0.1 to 0.5 nM.

Consider `Cc1nc2c(Nc3ccc(C4CCOCC4)cc3P(C)(C)=O)cc(NC(=O)C3CC3)nc2[nH]1` [I-431, N-(7-((2-(dimethylphosphoryl)-4-(tetrahydro-2H-pyran-4-yl)phenyl)amino)-2-methyl-3H-imidazo[4,5-b]pyridin-5-yl)cyclopropanecarboxamide], for which the Kd is 0.5 to 1 nM.

For the compound `CS(=O)(=O)c1cc(C2CCC2)ccc1Nc1cc(NC(=O)[C@H]2C[C@H]2F)nc2[nH]c(C(F)F)nc12` [I-432, (1R,2R)—N-(7-((4-cyclobutyl-2-(methylsulfonyl)phenyl)amino)-2-(difluoromethyl)-3H-imidazo[4,5-b]pyridin-5-yl)-2-fluorocyclopropane-1-carboxamide], the Kd lay within 1 to 10 nM.

In turn, `CS(=O)(=O)c1cc(C2CCC2)ccc1Nc1cc(NC(=O)[C@@H]2C[C@@H]2F)nc2[nH]c(C(F)F)nc12` [I-433, (1S, 2S)—N-(7-((4-cyclobutyl-2-(methylsulfonyl)phenyl)amino)-2-(difluoromethyl)-3H-imidazo[4,5-b]pyridin-5-yl)-2-fluorocyclopropane-1-carboxamide] gave an equilibrium dissociation constant (Kd) of 0.1 to 0.5 nM.

`Cc1cc(Nc2cc(Nc3ccc(C4CC4)cc3S(C)(=O)=O)c3nc(C)[nH]c3n2)nc(C)n1` [I-434, N7-(4-cyclopropyl-2-(methylsulfonyl)phenyl)-N5-(2,6-dimethylpyrimidin-4-yl)-2-methyl-3H-imidazo[4,5-b]pyridine-5,7-diamine] came in with an equilibrium dissociation constant (Kd) of 0.1 to 0.5 nM.

For the compound `Cc1nc2c(Nc3ccc(C4CC4)cc3S(C)(=O)=O)cc(Nc3cnc(C)c(C)n3)nc2[nH]1` [I-435, N7-(4-cyclopropyl-2-(methylsulfonyl)phenyl)-N5-(5,6-dimethylpyrazin-2-yl)-2-methyl-3H-imidazo[4,5-b]pyridine-5,7-diamine], the Kd is 0.1 to 0.5 nM.

`CS(=O)(=O)c1cc(C2CC2)ccc1Nc1cc(Nc2cc3n(n2)CCOC3)nc2[nH]c(C(F)F)nc12` [I-436, N7-(4-cyclopropyl-2-(methylsulfonyl)phenyl)-2-(difluoromethyl)-N5-(6,7-dihydro-4H-pyrazolo[5,1-c][1,4]oxazin-2-yl)-3H-imidazo[4,5-b]pyridine-5,7-diamine] had a Kd of 0.1 to 0.5 nM.

As for `Cc1nc2c(Nc3ccc(C4CC4)cc3S(C)(=O)=O)cc(Nc3cc4n(n3)CCOC4)nc2[nH]1` [I-437, N7-(4-cyclopropyl-2-(methylsulfonyl)phenyl)-N5-(6,7-dihydro-4H-pyrazolo[5,1-c][1,4]oxazin-2-yl)-2-methyl-3H-imidazo[4,5-b]pyridine-5,7-diamine], the Kd was < 0.1 nM.

For the compound `CS(=O)(=O)c1cc([C@@H]2CCCOC2)ccc1Nc1cc(NC(=O)[C@@H]2CC2(F)F)nc2[nH]c(C(F)F)nc12` [I-438, (S)—N-(2-(difluoromethyl)-7-((2-(methylsulfonyl)-4-((S)-tetrahydro-2H-pyran-3-yl)phenyl)amino)-3H-imidazo[4,5-b]pyridin-5-yl)-2,2-difluorocyclopropane-1-carboxamide], the Kd lay in the range of 1 to 10 nM.

For `CS(=O)(=O)c1cc([C@@H]2CCCOC2)ccc1Nc1cc(NC(=O)[C@H]2CC2(F)F)nc2[nH]c(C(F)F)nc12` [I-439, (R)—N-(2-(difluoromethyl)-7-((2-(methylsulfonyl)-4-((S)-tetrahydro-2H-pyran-3-yl)phenyl)amino)-3H-imidazo[4,5-b]pyridin-5-yl)-2,2-difluorocyclopropane-1-carboxamide], the Kd was in the range of 1 to 10 nM.

The compound `COc1c(Nc2cc(NC(=O)[C@H]3C[C@H]3F)nc3[nH]c(C(F)F)nc23)cccc1-c1ncn(C)n1` [I-440, (1R,2R)—N-(2-(difluoromethyl)-7-((2-methoxy-3-(1-methyl-1H-1,2,4-triazol-3-yl)phenyl)amino)-3H-imidazo[4,5-b]pyridin-5-yl)-2-fluorocyclopropane-1-carboxamide] showed a dissociation constant Kd of 0.1 to 0.5 nM.

In the case of `Cc1nc2c(Nc3ccccc3[S@+](C)[O-])cc(NC(=O)C3CC3)nc2[nH]1` [I-441, (S)—N-(2-methyl-7-((2-(methylsulfinyl)phenyl)amino)-3H-imidazo[4,5-b]pyridin-5-yl)cyclopropanecarboxamide], the Kd was in the range of 1 to 10 nM.

As to `Cc1nc2c(Nc3ccccc3[S@@+](C)[O-])cc(NC(=O)C3CC3)nc2[nH]1` [I-442, (R)—N-(2-methyl-7-((2-(methylsulfinyl)phenyl)amino)-3H-imidazo[4,5-b]pyridin-5-yl)cyclopropanecarboxamide], the Kd is > 10 nM.

Compound `Cc1nc2c(Nc3ccc(F)cc3S(C)(=O)=O)cc(NC(=O)C3CC3)nc2[nH]1` [I-443, N-(7-((4-fluoro-2-(methylsulfonyl)phenyl)amino)-2-methyl-3H-imidazo[4,5-b]pyridin-5-yl)cyclopropanecarboxamide] displayed a dissociation constant (Kd) of 0.1 to 0.5 nM.

Consider `CP(C)(=O)c1cc(C2CCC2)ccc1Nc1cc(NC(=O)C2CC2)nc2[nH]c(C(F)F)nc12` [I-444, N-(7-((4-cyclobutyl-2-(dimethylphosphoryl)phenyl)amino)-2-(difluoromethyl)-3H-imidazo[4,5-b]pyridin-5-yl)cyclopropane carboxamide], for which the dissociation constant (Kd) lay within 0.1 to 0.5 nM.

The compound `Cc1nc2c(Nc3ccc(C4CCC4)cc3P(C)(C)=O)cc(NC(=O)C3CC3)nc2[nH]1` [I-445, N-(7-((4-cyclobutyl-2-(dimethylphosphoryl)phenyl)amino)-2-methyl-3H-imidazo[4,5-b]pyridin-5-yl)cyclopropanecarboxamide] returned a Kd of 0.1 to 0.5 nM.

Compound `Cc1nn(C)c(C)c1-c1ccc(Nc2cc(NC(=O)C3CC3)nc3[nH]c(C(F)F)nc23)c(S(C)(=O)=O)c1` [I-446, N-(2-(difluoromethyl)-7-((2-(methylsulfonyl)-4-(1,3,5-trimethyl-1H-pyrazol-4-yl)phenyl)amino)-3H-imidazo[4,5-b]pyridin-5-yl)cyclopropanecarboxamide] had a Kd of 0.1 to 0.5 nM.

Compound `Cc1nc2c(Nc3ccc(-c4c(C)nn(C)c4C)cc3S(C)(=O)=O)cc(NC(=O)C3CC3)nc2[nH]1` [I-447, N-(2-methyl-7-((2-(methylsulfonyl)-4-(1,3,5-trimethyl-1H-pyrazol-4-yl)phenyl)amino)-3H-imidazo[4,5-b]pyridin-5-yl)cyclopropanecarboxamide] showed a dissociation constant Kd of 0.1 to 0.5 nM.

In turn, `[2H]C([2H])([2H])S(=O)(=O)N(C)c1ccccc1Nc1cc(Nc2cc(C)nc(C)n2)nc2[nH]c(C(F)F)nc12` [I-448, N-(2-((2-(difluoromethyl)-5-((2,6-dimethylpyrimidin-4-yl)amino)-3H-imidazo[4,5-b]pyridin-7-yl)amino)phenyl)-N-methylmethanesulfonamide-d3] yielded a Kd of 0.1 to 0.5 nM.

As for `Cc1nc2c(Nc3ccc(-c4nn(C)cc4C)cc3S(C)(=O)=O)cc(Nc3cnc(C)c(C)n3)nc2[nH]1` [I-449, N7-(4-(1,4-dimethyl-1H-pyrazol-3-yl)-2-(methylsulfonyl)phenyl)-N5-(5,6-dimethylpyrazin-2-yl)-2-methyl-3H-imidazo[4,5-b]pyridine-5,7-diamine], the Kd lay within 0.1 to 0.5 nM.

Take `Cc1cn(C)c(-c2ccc(Nc3cc(NC(=O)C4CC4)nc4[nH]c(C(F)F)nc34)c(S(C)(=O)=O)c2)n1` [I-450, N-(2-(difluoromethyl)-7-((4-(1,4-dimethyl-1H-imidazol-2-yl)-2-(methylsulfonyl)phenyl)amino)-3H-imidazo[4,5-b]pyridin-5-yl)cyclopropanecarboxamide]: the Kd lay in the range of 0.1 to 0.5 nM.

On to `Cc1cnc(-c2ccc(Nc3cc(NC(=O)C4CC4)nc4[nH]c(C(F)F)nc34)c(S(C)(=O)=O)c2)n1C` [I-451, N-(2-(difluoromethyl)-7-((4-(1,5-dimethyl-1H-imidazol-2-yl)-2-(methylsulfonyl)phenyl)amino)-3H-imidazo[4,5-b]pyridin-5-yl)cyclopropaneCarboxamide], for which the Kd is 0.1 to 0.5 nM.

The compound `CS(=O)(=O)c1cc([C@@H]2CCOC2)ccc1Nc1cc(NC(=O)C2CC2)nc2[nH]c(C(F)F)nc12` [I-452, (S)—N-(2-(difluoromethyl)-7-((2-(methylsulfonyl)-4-(tetrahydrofuran-3-yl)phenyl)amino)-3H-imidazo[4,5-b]pyridin-5-yl)cyclopropanecarboxamide] came in with a Kd of 0.5 to 1 nM.

Compound `CS(=O)(=O)c1cc([C@H]2CCOC2)ccc1Nc1cc(NC(=O)C2CC2)nc2[nH]c(C(F)F)nc12` [I-453, (R)—N-(2-(difluoromethyl)-7-((2-(methylsulfonyl)-4-(tetrahydrofuran-3-yl)phenyl)amino)-3H-imidazo[4,5-b]pyridin-5-yl)cyclopropanecarboxamide] yielded a Kd of 0.1 to 0.5 nM.

As for `CO[C@H](C)c1ccc(Nc2cc(NC(=O)C3CC3)nc3[nH]c(C(F)F)nc23)c(S(C)(=O)=O)c1` [I-454, (R)—N-(2-(difluoromethyl)-7-((4-(1-methoxyethyl)-2-(methylsulfonyl)phenyl)amino)-3H-imidazo[4,5-b]pyridin-5-yl)cyclopropanecarboxamide], the dissociation constant Kd was 0.5 to 1 nM.

The term Kd denotes the equilibrium constant for the complex coming apart.
